Earlier results on eight compounds are cited in article PMC4274137 (HIV/AIDS (Auckland, N.Z.), 2014).

Read-outs that look alike come from different tables or passages of the source.

Data set [1] relates to HIV patients.
In data set [2] the test system is HIV patients. The conditions noted are these: DAD study.
For data set [3], the system named is HIV patients. The source holds these as a separate data set.
For data set [4], the system named is HIV patients. The conditions noted are these: HIV patients in France.
In data set [5] the test system is HIV patients. The note with it: Danish study.
Setting [6] is: HIV dyslipidemia, ezetimibe monotherapy or combined with statin.

As to `O=C1[C@H](CC[C@H](O)c2ccc(F)cc2)[C@@H](c2ccc(O)cc2)N1c1ccc(F)cc1` [Ezetimibe], in the data set with HIV dyslipidemia (setting [6]), the lipid-lowering efficacy result is on record as “effective”. Also, in the data set with HIV patients [1] (setting [6]), the safety result was “safe”.
Turning to `CC(C)OC(=O)C(C)(C)Oc1ccc(C(=O)c2ccc(Cl)cc2)cc1` [Fenofibrate], the “efficacy in mixed dyslipidemia and hypertriglyceridemia” value in the data set with HIV dyslipidemia (people with HIV infection) is “useful”. For the same compound, the safety result with HIV patients [1] (people with HIV infection) is “generally safe”.
Consider `O=C(O)c1cccnc1` [Niacin], for which, in the data set on HIV dyslipidemia (HIV patients, two studies), the “efficacy in improving lipid profile” value is reported as “effective”. In the data set on HIV patients [1] (HIV patients, two studies), the safety result was “safe”.
Turning to `Nc1nc(NC2CC2)c2ncn([C@H]3C=C[C@@H](CO)C3)c2n1` [abacavir], the “risk of myocardial infarction” value in the data set on HIV patients [2] is “associated with independent risk of myocardial infarction”.
In the case of `O=C1Nc2ccc(Cl)cc2[C@@](C#CC2CC2)(C(F)(F)F)O1` [efavirenz], in the data set with HIV patients [3] (HIV patients on NNRTIs), the “total cholesterol and triglycerides” value is “associated with increase in total cholesterol and triglycerides”.
On to `Cc1cn([C@H]2C=C[C@@H](CO)O2)c(=O)[nH]c1=O` [stavudine], for which the “risk factor for hypothyroidism” value in the data set on HIV patients [4] is “risk factors”. Further, the “association of treatment with NAFLD” value in the data set with Asian patients with HIV is “not with HIV-related factors”.
`C[C@H](Cn1cnc2c(N)ncnc21)OCP(=O)(O)O` [tenofovir]: the “estimated glomerular filtration rate (eGFR)” value in the data set with HIV patients [5] was “reduced estimated glomerular filtration rate”. In addition, the “high triglycerides and lipoatrophy (NRTI effect)” value with HIV patients [3] (compared with other NRTIs) is given as “this effect is less seen”.
For the compound `Nc1ccn([C@H]2CC[C@@H](CO)O2)c(=O)n1` [zalcitabine], in the data set with Asian patients with HIV, the “association of treatment with NAFLD” value is reported as “not with HIV-related factors”.
